In the supplement of paper PMC13380429:

Key:
Settings in all cases: 72 h
Caco-2 [1] = test: relative viability EC50 (midpoint between 100% and the lowest measured viability); higher = less toxic
Calu-3 [2] = test: as above
Vero E6 [3] = test: as above
HepG2 [4] = test: as above
U2OS [5] = test: as above
Caco-2 [6] = test: drug sensitivity score (DSS) for viability; higher = more toxic; extreme values may be limits of the assay
Calu-3 [7] = test: as above
Vero E6 [8] = test: as above
HepG2 [9] = test: as above
U2OS [10] = test: as above
Caco-2 [11] = test: cell viability relative to DMSO; higher = less toxic
Calu-3 [12] = test: as above
Vero E6 [13] = test: as above
HepG2 [14] = test: as above
U2OS [15] = test: as above

Row | Structure (SMILES) | relative viability EC50 (Caco-2 [1]) [µM] | relative viability EC50 (Calu-3 [2]) [µM] | relative viability EC50 (Vero E6 [3]) [µM] | relative viability EC50 (HepG2 [4]) [µM] | relative viability EC50 (U2OS [5]) [µM] | drug sensitivity score (Caco-2 [6]) | drug sensitivity score (Calu-3 [7]) | drug sensitivity score (Vero E6 [8]) | drug sensitivity score (HepG2 [9]) | drug sensitivity score (U2OS [10]) | cell viability (Caco-2 [11]; 1 nM) [%] | cell viability (Caco-2 [11]; 10 nM) [%] | cell viability (Caco-2 [11]; 100 nM) [%] | cell viability (Caco-2 [11]; 1000 nM) [%] | cell viability (Caco-2 [11]; 10000 nM) [%] | cell viability (Calu-3 [12]; 1 nM) [%] | cell viability (Calu-3 [12]; 10 nM) [%] | cell viability (Calu-3 [12]; 100 nM) [%] | cell viability (Calu-3 [12]; 1000 nM) [%] | cell viability (Calu-3 [12]; 10000 nM) [%] | cell viability (Vero E6 [13]; 1 nM) [%] | cell viability (Vero E6 [13]; 10 nM) [%] | cell viability (Vero E6 [13]; 100 nM) [%] | cell viability (Vero E6 [13]; 1000 nM) [%] | cell viability (Vero E6 [13]; 10000 nM) [%] | cell viability (HepG2 [14]; 1 nM) [%] | cell viability (HepG2 [14]; 10 nM) [%] | cell viability (HepG2 [14]; 100 nM) [%] | cell viability (HepG2 [14]; 1000 nM) [%] | cell viability (HepG2 [14]; 10000 nM) [%] | cell viability (U2OS [15]; 1 nM) [%] | cell viability (U2OS [15]; 10 nM) [%] | cell viability (U2OS [15]; 100 nM) [%] | cell viability (U2OS [15]; 1000 nM) [%] | cell viability (U2OS [15]; 10000 nM) [%]
1 | O=C(Nc1cccc(Cl)c1)c1ccccn1 | > 10 | > 10 | > 10 | > 10 | > 10 | 0 | 0 | 0 | 0 | 0 | 87.9 | 102 | 98 | 96.8 | 102 | 94.5 | 95.8 | 95.9 | 114 | 102 | 107 | 102 | 107 | 99.3 | 103 | 111 | 100 | 105 | 97.3 | 107 | 102 | 104 | 99.8 | 108 | 101
2 | O=c1cc(N2CCOCC2)oc2c1ccc1ccccc12 [NU-7026] | > 10 | > 10 | > 10 | > 10 | > 10 | 0.5 | 0.7 | 0.1 | 0.4 | 0 | 94.3 | 113 | 91 | 99.2 | 82.7 | 98.4 | 107 | 102 | 97.6 | 82.8 | 99 | 103 | 98.3 | 101 | 86.2 | 106 | 93.4 | 92.9 | 90.8 | 88 | 98.9 | 101 | 96.2 | 99.6 | 95.7
3 | COC(=O)c1ccc2c(c1)nc(NC(=O)c1ccccc1)n2CCCc1ccccc1 [BRD4770] | > 10 | > 10 | > 10 | > 10 | > 10 | 1 | 0 | 0 | 1.6 | 0.1 | 98 | 103 | 94.1 | 91.9 | 80 | 107 | 96.6 | 97.4 | 93.6 | 95.5 | 103 | 97.4 | 98 | 96.6 | 90.1 | 109 | 97.2 | 99.9 | 94.3 | 77 | 97.9 | 98.6 | 98.2 | 99.3 | 88.3
4 | COc1cccc2c1C(=O)c1c(O)c3c(c(O)c1C2=O)C[C@@](O)(/C(CO)=N/NC(=O)CCCCCN1C(=O)C=CC1=O)C[C@@H]3O[C@H]1C[C@H](N)[C@H](O)[C@H](C)O1 [aldoxorubicin] | 0.367 | 0.233 | 1.38 | 0.102 | 0.513 | 11.7 | 13.2 | 5.8 | 21.6 | 14.2 | 104 | 102 | 93.2 | 41.4 | 30.9 | 93.4 | 98.1 | 75.7 | 45.1 | 28 | 105 | 101 | 103 | 82 | 41.9 | 97.4 | 94 | 50.3 | 20.3 | 5.8 | 102 | 98.4 | 94.8 | 28.5 | 6
5 | CCc1cc(O)c(Oc2ccc(C(N)=O)cc2F)cc1F | > 10 | > 10 | > 10 | > 10 | > 10 | 0 | 0 | 0 | 0 | 0 | 107 | 99 | 104 | 97.9 | 101 | 106 | 97.8 | 95.3 | 98.6 | 89.3 | 102 | 98.2 | 99.8 | 104 | 100 | 110 | 94.1 | 93 | 103 | 97.4 | 104 | 99.9 | 102 | 102 | 102
6 | COC(=O)[C@H](c1ccccc1Cl)N1CCc2sccc2C1 [clopidogrel] | > 10 | > 10 | > 10 | > 10 | > 10 | 0 | 0 | 0 | 0 | 0 | 91.9 | 91.8 | 95.1 | 95 | 88.2 | 89.9 | 104 | 96.9 | 96.7 | 101 | 105 | 86.7 | 104 | 104 | 108 | 97.7 | 97.7 | 98.4 | 112 | 101 | 94.8 | 99.3 | 95.8 | 102 | 97.6
7 | CCCCCCCCCCCCCCCC[N+](C)(C)Cc1ccccc1 [benzyldimethylhexadecylammonium] | 2.12 | 3.39 | > 10 | 2.41 | 3.28 | 6.3 | 3 | 0 | 4.8 | 4.6 | 93.9 | 96.1 | 91.9 | 89.4 | 18 | 94.9 | 105 | 105 | 102 | 41.2 | 99 | 94.6 | 100 | 94.5 | 92.8 | 113 | 101 | 102 | 93.7 | 30.6 | 99.6 | 101 | 102 | 102 | 14.1
8 | N#CC1(c2ccc(NC(=O)c3cccnc3NCc3ccncc3)cc2)CCCC1 [apatinib] | > 10 | > 10 | > 10 | > 10 | > 10 | 0 | 0 | 0 | 1.9 | 0 | 92.3 | 94.1 | 93.5 | 101 | 94.1 | 92.9 | 94.5 | 104 | 97.5 | 104 | 96.5 | 92 | 98.3 | 97.1 | 109 | 103 | 105 | 107 | 89.5 | 77.8 | 97.4 | 104 | 98 | 99.2 | 99.6
9 | CC(=O)Nc1c(I)c(C(=O)O)c(I)c(N(C)C(C)=O)c1I [metrizoic-acid] | > 10 | > 10 | > 10 | > 10 | > 10 | 0 | 0 | 0 | 0 | 0 | 92 | 102 | 94 | 97.3 | 92.8 | 96.6 | 103 | 98.3 | 94.9 | 107 | 104 | 98.6 | 105 | 98.8 | 101 | 107 | 104 | 105 | 96.6 | 110 | 97.6 | 105 | 95.9 | 105 | 96.5
10 | CNCC(=O)O [sarcosine] | > 10 | > 10 | > 10 | > 10 | > 10 | 0 | 0 | 0 | 0 | 0 | 93.3 | 93.4 | 95.5 | 102 | 110 | 92.9 | 98.5 | 96.7 | 89.6 | 97.7 | 93.4 | 97.8 | 90.4 | 103 | 112 | 112 | 110 | 88.4 | 106 | 107 | 96.1 | 99.2 | 99.1 | 96 | 107
11 | COc1ccc2cc(CCC(C)=O)ccc2c1 [nabumetone] | > 10 | > 10 | > 10 | > 10 | > 10 | 0 | 0 | 0.3 | 0 | 0 | 111 | 90.4 | 89.2 | 97.4 | 94.5 | 98.2 | 90.6 | 86.7 | 106 | 95.4 | 101 | 104 | 101 | 93.8 | 88.1 | 99.8 | 97.8 | 105 | 90.8 | 95.8 | 98.5 | 95.2 | 99.9 | 93.3 | 101
12 | O=C1N=C2SCCN2C(=O)C1Cc1ccc(Cl)cc1 (stereo not given) [nuclomedone] | > 10 | > 10 | > 10 | > 10 | > 10 | 0 | 0 | 0 | 0 | 0 | 93.1 | 96.5 | 91.9 | 92.2 | 94.9 | 91.5 | 104 | 95.5 | 99.9 | 90.5 | 96.9 | 95.5 | 95.1 | 104 | 93.4 | 93.7 | 89.1 | 95.3 | 96.4 | 92 | 98.4 | 97.6 | 95.6 | 95.6 | 96.4
13 | C[C@@H](CCCCC(=O)Nc1ccc(C(F)(F)F)cc1)NCCc1c[nH]cn1 [HTMT] | > 10 | > 10 | > 10 | > 10 | > 10 | 0 | 0 | 0 | 0 | 0 | 97.2 | 92.8 | 87 | 99.4 | 94.1 | 100 | 97.8 | 100 | 106 | 100 | 98.3 | 94.7 | 98 | 100 | 108 | 110 | 95.6 | 104 | 104 | 98 | 99.9 | 100 | 96.9 | 101 | 106
14 | O=C(Nc1ccc2[nH]ccc2c1)c1ccccc1 [OAC2] | > 10 | > 10 | > 10 | > 10 | > 10 | 0 | 0 | 0 | 0 | 0 | 91.9 | 91.3 | 95.1 | 98.7 | 94.5 | 102 | 99 | 104 | 99.3 | 96.6 | 92.3 | 95.7 | 99.6 | 92.8 | 95.5 | 104 | 106 | 97.3 | 99.7 | 101 | 103 | 97.2 | 97.1 | 104 | 95.3
